According to publication PMC12876586, “Chronological lifespan extension and nucleotide salvage inhibition in yeast by isonicotinamide supplementation” (The Journal of Biological Chemistry, 2026):

Key:
Assay type in all cases: biochemical
Sdt1 [1] = target: T1, Sdt1 (Saccharomyces cerevisiae, UniProt P53078); test: malachite green phosphate release; conditions: activator; 100 μM NMN, 5 mM MgCl2, pH 7.5, 37 °C, 30 min; mM NAM
T1 construct: recombinant, C-terminal His tag, commercial (Echelon Biosciences)

Pho13 [2] = target: T2, Pho13 (Saccharomyces cerevisiae, UniProt P19881); test: pNPP hydrolysis, A400, whole cell extract of pho8Δ; conditions: pNPP substrate, Mg2+, Zn2+, pH 8.8, 37 °C, 15 min; weak inhibitor
T2 construct: native enzyme in whole cell extract of pho8Δ strain (Pho13 the remaining alkaline phosphatase)
T2 sequence (P19881 1-312): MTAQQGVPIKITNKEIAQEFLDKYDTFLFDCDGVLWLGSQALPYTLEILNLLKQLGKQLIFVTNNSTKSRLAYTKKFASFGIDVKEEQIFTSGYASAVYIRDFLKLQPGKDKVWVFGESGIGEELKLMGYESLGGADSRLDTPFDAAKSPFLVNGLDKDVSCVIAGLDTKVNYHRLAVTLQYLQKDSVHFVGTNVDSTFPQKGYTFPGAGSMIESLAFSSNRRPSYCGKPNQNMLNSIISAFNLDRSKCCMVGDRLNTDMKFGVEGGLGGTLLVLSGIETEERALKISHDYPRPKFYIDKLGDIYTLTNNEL

Phm8 = target: T3, Phm8 (Saccharomyces cerevisiae, UniProt P40025); test: malachite green phosphate release; conditions: 100 μM CMP, 5 mM MgCl2, pH 7.5, 37 °C, 30 min; mM INAM
T3 construct: pET-16b (NdeI), E. coli BL21(DE3), C-terminal 10xHis as printed, Ni-NTA purified
T3 sequence (P40025 1-321): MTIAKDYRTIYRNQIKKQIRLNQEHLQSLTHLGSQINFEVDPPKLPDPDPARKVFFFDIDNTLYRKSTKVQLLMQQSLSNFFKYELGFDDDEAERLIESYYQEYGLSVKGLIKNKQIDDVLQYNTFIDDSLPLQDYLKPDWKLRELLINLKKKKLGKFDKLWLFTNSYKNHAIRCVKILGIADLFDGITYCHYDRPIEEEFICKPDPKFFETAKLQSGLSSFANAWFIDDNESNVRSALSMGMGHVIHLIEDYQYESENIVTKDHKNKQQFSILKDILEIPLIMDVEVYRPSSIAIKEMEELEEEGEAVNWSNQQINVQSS

Pho8 [3] = target: T4, Pho8 (Saccharomyces cerevisiae, UniProt P11491); test: pNPP hydrolysis, A400, whole cell extract of pho13Δ; conditions: pNPP substrate, Mg2+, Zn2+, pH 8.8, 37 °C, 15 min; weak inhibitor
T4 construct: native enzyme in whole cell extract of pho13Δ strain (Pho8 the remaining alkaline phosphatase)
T4 sequence (P11491 1-534): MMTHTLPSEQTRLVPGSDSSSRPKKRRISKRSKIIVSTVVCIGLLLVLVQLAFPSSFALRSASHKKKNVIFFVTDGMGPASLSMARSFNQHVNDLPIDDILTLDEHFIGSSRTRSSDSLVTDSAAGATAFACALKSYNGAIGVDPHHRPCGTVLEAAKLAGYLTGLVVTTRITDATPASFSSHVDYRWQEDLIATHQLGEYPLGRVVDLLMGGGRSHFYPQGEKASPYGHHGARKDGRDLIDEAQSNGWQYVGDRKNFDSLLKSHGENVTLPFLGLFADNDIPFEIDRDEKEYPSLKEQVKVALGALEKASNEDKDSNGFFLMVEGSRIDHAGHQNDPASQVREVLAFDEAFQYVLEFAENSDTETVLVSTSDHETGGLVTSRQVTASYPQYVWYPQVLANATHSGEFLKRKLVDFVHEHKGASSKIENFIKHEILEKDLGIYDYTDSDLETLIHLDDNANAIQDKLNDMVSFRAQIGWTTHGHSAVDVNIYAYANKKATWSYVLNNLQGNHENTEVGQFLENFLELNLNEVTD

Sdt1 [4] = target: T1, Sdt1; test: malachite green phosphate release; conditions: 100 μM CMP (also inhibited with NMN), 5 mM MgCl2, pH 7.5, 37 °C, 30 min; mM INAM
Sdt1 [5] = target: T1, Sdt1; test: malachite green phosphate release; conditions: 100 μM substrate, 5 mM MgCl2, pH 7.5, 37 °C, 30 min
Pho13 [6] = target: T2, Pho13; test: pNPP hydrolysis, A400, whole cell extract of pho8Δ; conditions: Mg2+, Zn2+, pH 8.8, 37 °C, 15 min
Pho8 [7] = target: T4, Pho8; test: pNPP hydrolysis, A400, whole cell extract of pho13Δ; conditions: Mg2+, Zn2+, pH 8.8, 37 °C, 15 min

T1 sequence (P53078 whole entry): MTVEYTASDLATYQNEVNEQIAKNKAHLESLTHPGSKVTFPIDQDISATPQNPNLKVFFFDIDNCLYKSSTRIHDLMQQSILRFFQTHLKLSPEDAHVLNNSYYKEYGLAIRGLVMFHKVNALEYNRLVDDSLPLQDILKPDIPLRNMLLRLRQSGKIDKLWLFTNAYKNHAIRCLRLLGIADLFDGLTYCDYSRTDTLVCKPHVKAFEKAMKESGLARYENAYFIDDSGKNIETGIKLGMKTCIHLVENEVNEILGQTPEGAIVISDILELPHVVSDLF

NC(=O)c1cccnc1 [nicotinamide]
stimulation of nucleotidase activity (Sdt1 [1]): NAM caused significant dose-dependent stimulation of Sdt1 nucleotidase activity with NMN as substrate

NC(=O)c1ccncc1 [isonicotinamide]
inhibition of alkaline phosphatase activity (Pho13 [2]): suggesting that Pho8 and Pho13 are both weak inhibitory targets | inhibition of nucleotidase activity (Phm8): INAM inhibition of recombinant Sdt1 and Phm8 nucleotidase activity on CMP in vitro | inhibition of alkaline phosphatase activity (Pho8 [3]): suggesting that Pho8 and Pho13 are both weak inhibitory targets | inhibition of nucleotidase activity (Sdt1 [4]): Sdt1 and Phm8 activity on CMP and NMN was significantly inhibited by INAM

NC(=O)c1ccc[n+]([C@@H]2O[C@H](COP(=O)(O)O)[C@@H](O)[C@H]2O)c1 [nicotinamide mononucleotide]
malachite green phosphate release (Sdt1 [5]): INAM inhibition of recombinant Sdt1 nucleotidase activity on NMN in vitro

O=[N+]([O-])c1ccc(OP(=O)(O)O)cc1 [p-nitrophenyl phosphate]
pNPP hydrolysis, A400, whole cell extract of pho8Δ (Pho13 [6]): both utilize pNPP as a substrate in vitro | pNPP hydrolysis, A400, whole cell extract of pho13Δ (Pho8 [7]): both utilize pNPP as a substrate in vitro
